In paper PMC6440977, “Nucleoside analogue activators of cyclic AMP-independent protein kinase A of Trypanosoma” (Nature Communications, 2019):
Several values for one entry are separate records, joined by “and”; a condition that tells them apart may be missing. Identical values can stand only once. Like-named read-outs stand apart in the source and are kept apart here.

Columns and labels:
metacaspase 4 (MCA4) = format: cell-based, Trypanosoma brucei; details: for MCA4 counts / MCA4 normalized / MCA4 fold change: 4 µM; for MCA4 normalized: normalized to PFR-A/C; for MCA4 fold change: untreated WT set to 1
[1] = target: T. brucei PKAR-PKAC1 holoenzyme (Trypanosoma brucei, UniProt Q9GU80); assay: biochemical; format: biochemical; details: for In vitro kinase assay: technical replicates
T. brucei PKAR-PKAC1 holoenzyme, sequence (Q38DR5 entry or part of it): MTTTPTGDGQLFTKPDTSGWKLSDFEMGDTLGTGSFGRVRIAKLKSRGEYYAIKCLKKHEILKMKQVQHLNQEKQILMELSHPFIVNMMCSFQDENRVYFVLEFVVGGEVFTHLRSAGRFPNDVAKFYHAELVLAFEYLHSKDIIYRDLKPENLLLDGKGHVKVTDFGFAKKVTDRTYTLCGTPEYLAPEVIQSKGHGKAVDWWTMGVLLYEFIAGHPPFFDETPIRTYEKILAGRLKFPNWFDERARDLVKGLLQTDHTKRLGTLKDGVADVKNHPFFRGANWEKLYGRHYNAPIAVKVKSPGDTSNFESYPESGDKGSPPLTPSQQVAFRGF
T. brucei PKAR-PKAC1 holoenzyme, sequence (Q9GU80 entry or part of it): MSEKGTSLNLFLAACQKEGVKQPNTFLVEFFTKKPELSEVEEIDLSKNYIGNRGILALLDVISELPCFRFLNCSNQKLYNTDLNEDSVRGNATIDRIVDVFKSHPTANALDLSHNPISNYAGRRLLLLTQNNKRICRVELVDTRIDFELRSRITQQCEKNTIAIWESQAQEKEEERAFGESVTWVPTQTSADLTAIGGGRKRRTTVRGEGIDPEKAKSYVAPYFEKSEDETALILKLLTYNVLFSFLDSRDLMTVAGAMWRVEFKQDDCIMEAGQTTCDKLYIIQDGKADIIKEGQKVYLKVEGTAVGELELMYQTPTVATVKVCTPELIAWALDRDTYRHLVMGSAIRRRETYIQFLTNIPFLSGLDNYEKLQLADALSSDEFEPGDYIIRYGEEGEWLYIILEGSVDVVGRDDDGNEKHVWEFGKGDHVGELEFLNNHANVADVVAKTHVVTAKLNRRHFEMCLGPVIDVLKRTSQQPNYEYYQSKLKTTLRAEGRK

[2] = test system: RXXS*/T* site phosphorylation; assay: Western blot of global RXXS*/T* site phosphorylation (phospho-PKA substrate antibody); format: cell-based, Trypanosoma brucei; details: wild type, 2 µM, 10 min
[3] = test system: T. brucei ∆pkar/∆pkar (pkar KO) cells; assay: microbe, parasite or virus in culture; format: cell-based, Trypanosoma brucei; details: for EC50: pkar KO cells
[4] = target: T1, mammalian PKARIα2–2PKACα holoenzyme (Homo sapiens, UniProt P10644); assay: In vitro kinase assay with purified mammalian holoenzyme; format: biochemical, human PKARIα, mouse PKACα; details: for In vitro kinase assay: technical replicates
T1 construct: The full length ORFs (amplified with primers introducing the respective); made in house; host or cells: E. coli strain APE304 (adenylate cyclase-deficient)
T1 sequence (P10644 whole entry): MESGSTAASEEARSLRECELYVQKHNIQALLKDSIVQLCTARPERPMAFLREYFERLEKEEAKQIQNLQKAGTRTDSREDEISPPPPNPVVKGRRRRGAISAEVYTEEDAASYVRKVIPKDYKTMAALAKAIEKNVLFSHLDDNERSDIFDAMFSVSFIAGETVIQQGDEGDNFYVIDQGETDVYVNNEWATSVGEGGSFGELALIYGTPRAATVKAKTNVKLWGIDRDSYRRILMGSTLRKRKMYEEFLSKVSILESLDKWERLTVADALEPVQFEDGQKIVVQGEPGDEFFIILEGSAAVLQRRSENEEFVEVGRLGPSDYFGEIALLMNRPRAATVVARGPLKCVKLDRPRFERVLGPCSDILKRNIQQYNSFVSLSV

human PKARIα = target: T2, human PKARIα (Homo sapiens, UniProt P10644); assay: Binding by isothermal titration calorimetry (ITC)
T2 construct: The full length ORFs (amplified with primers introducing the respective); 6xHis followed by TEV site (N); made in house; host or cells: E. coli Rosetta D3
T2 sequence (P10644 whole entry): as above

T. brucei PKAR(199–499) = T. brucei PKAR(199–499) (Trypanosoma brucei, UniProt Q9GU80); assay: biochemical; format: binding; parameters: Thermodynamics (ITC) -TΔS / Thermodynamics (ITC) ΔG / Thermodynamics (ITC) ΔH: unit: kcal/mol
T. brucei PKAR(199–499), sequence (Q9GU80 entry or part of it): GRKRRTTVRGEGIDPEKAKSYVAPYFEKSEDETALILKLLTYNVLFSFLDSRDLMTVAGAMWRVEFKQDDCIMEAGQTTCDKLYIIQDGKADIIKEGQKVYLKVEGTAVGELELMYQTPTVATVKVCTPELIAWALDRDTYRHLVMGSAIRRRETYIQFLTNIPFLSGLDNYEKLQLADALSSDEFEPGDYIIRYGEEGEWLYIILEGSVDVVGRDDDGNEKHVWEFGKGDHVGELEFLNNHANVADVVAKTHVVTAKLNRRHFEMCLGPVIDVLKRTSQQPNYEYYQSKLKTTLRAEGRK

PKAC1/2 = format: cell-based, Trypanosoma brucei; details: 4 µM; for PKAC1/2 normalized: normalized to PFR-A/C; for PKAC1/2 fold change: untreated WT set to 1;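 for all read-outs here: trypanosoma brucei cells, PKAC1/2 signal from western blots read on an infrared fluorescence scanning system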
T. brucei BSF cells (WT) = assay: Alamar blue cell viability assay, wild type; details: for EC50: wild type cells;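 for all read-outs here: trypanosomes seeded at 5×10^3 per ml and grown 72 h with compound, then resazurin 0.5 mM added for 4 h as the viability read-out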
T. brucei PKA [5] = target: T3, T. brucei PKA (Trypanosoma brucei brucei, UniProt Q9GU80); assay: In vivo PKA reporter assay (VASP Ser-157 phosphorylation, western blot); format: cell-based;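 note: T. brucei cells expressing human VASP as heterologous PKA substrate, compound exposure at 37 °C, western blot of phospho (50 kDa) versus unphosphorylated (46 kDa) VASP band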
T3 sequence (Q38DS1 entry or part of it): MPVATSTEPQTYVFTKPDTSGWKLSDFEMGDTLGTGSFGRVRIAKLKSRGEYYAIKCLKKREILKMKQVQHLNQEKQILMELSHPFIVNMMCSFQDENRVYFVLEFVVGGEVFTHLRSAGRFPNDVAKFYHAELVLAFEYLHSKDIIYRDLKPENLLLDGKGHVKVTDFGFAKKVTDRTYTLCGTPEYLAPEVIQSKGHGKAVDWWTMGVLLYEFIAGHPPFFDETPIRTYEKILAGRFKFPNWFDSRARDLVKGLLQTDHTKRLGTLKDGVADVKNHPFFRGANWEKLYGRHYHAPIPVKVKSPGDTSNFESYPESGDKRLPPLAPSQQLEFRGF
T3 sequence (Q38DR5 entry or part of it, further chain): as the sequence (Q38DR5 entry or part of it) above

T. brucei PKA [6] = target: T3, T. brucei PKA; details: ref Shalaby et al. (reference 23 in manuscript); cited from earlier work
[7] = test system: T. brucei PKA holoenzyme (HA-PKAC2); format: biochemical, Trypanosoma brucei; details: for in vitro kinase assay [CPM], average: average of 3; for in vitro kinase assay [CPM]: independent replicates
[8] = test system: T. brucei PKA holoenzyme (PKAR-Ty1); format: biochemical, Trypanosoma brucei; details: for in vitro kinase assay [CPM], average: average of 3; for in vitro kinase assay [CPM]: independent replicates
[9] = test system: T. brucei PKA holoenzyme (Ty1-PKAC1); format: biochemical, Trypanosoma brucei; details: for in vitro kinase assay [CPM], average: average of 3; for in vitro kinase assay [CPM]: independent replicates

`N#Cc1cn([C@@H]2O[C@H](CO)[C@@H](O)[C@H]2O)c2ncnc(N)c12` [Toyo, 7-Cyano-7-deazaadenosine] gave an MCA4 counts (metacaspase 4 (MCA4); WT, 12 h) of 10.96, an MCA4 normalized (metacaspase 4 (MCA4); WT, 12 h) of 7.611 and an MCA4 fold change (metacaspase 4 (MCA4); WT, 12 h) of 0.5155. For the same compound, the MCA4 counts (metacaspase 4 (MCA4); WT, 18 h) was 19.07, the MCA4 normalized (metacaspase 4 (MCA4); WT, 18 h) was 24.1392 and the MCA4 fold change (metacaspase 4 (MCA4); WT, 18 h) was 1.635. The MCA4 counts (metacaspase 4 (MCA4); WT, 24 h) was 23.58, the MCA4 normalized (metacaspase 4 (MCA4); WT, 24 h) was 24.8211 and the MCA4 fold change (metacaspase 4 (MCA4); WT, 24 h) was 1.681. The “MCA4 abundance, in words” value (metacaspase 4 (MCA4); later time points, PKA-independent) was “elevated”, the MCA4 counts (metacaspase 4 (MCA4); pkar KO, 12 h) was 13.45 and the MCA4 normalized (metacaspase 4 (MCA4); pkar KO, 12 h) was 0.4781. The MCA4 fold change (metacaspase 4 (MCA4); pkar KO, 12 h) was 0.9855, the MCA4 counts (metacaspase 4 (MCA4); pkar KO, 18 h) was 12.35 and the MCA4 normalized (metacaspase 4 (MCA4); pkar KO, 18 h) was 0.669. For the same compound, the MCA4 fold change (metacaspase 4 (MCA4); pkar KO, 18 h) was 1.379, the MCA4 counts (metacaspase 4 (MCA4); pkar KO, 24 h) was 14.17 and the MCA4 normalized (metacaspase 4 (MCA4); pkar KO, 24 h) was 0.8557. For the same compound, the MCA4 fold change (metacaspase 4 (MCA4); pkar KO, 24 h) was 1.764, the “MCA4 abundance, in words” value (metacaspase 4 (MCA4); wild type, 12 h post induction) was “decreased” and the “In vitro kinase assay” value ([1]; 0.001 µM) was 0.11 U/ml and 0.14 U/ml. For the same compound, the “In vitro kinase assay” value ([1]; 0.01 µM) was 0.16 U/ml, the “In vitro kinase assay” value ([1]; 0.02 µM) was 0.18 U/ml and 0.15 U/ml and the “In vitro kinase assay” value ([1]; 0.04 µM) was 0.31 U/ml and 0.25 U/ml. The “In vitro kinase assay” value ([1]; 0.08 µM) was 0.3 U/ml and 0.33 U/ml, the “In vitro kinase assay” value ([1]; 0.16 µM) was 0.45 U/ml and 0.4 U/ml and the “In vitro kinase assay” value ([1]; 0.31 µM) was 0.58 U/ml and 0.64 U/ml. For the same compound, the “In vitro kinase assay” value ([1]; 0.63 µM) was 0.61 U/ml and 0.73 U/ml, the “In vitro kinase assay” value ([1]; 1.25 µM) was 0.71 U/ml and 0.74 U/ml and the “In vitro kinase assay” value ([1]; 2.5 µM) was 0.78 U/ml and 0.82 U/ml. For the same compound, the “In vitro kinase assay” value ([1]; 5 µM) was 0.82 U/ml and 0.75 U/ml and 4.49 U/ml and 4.39 U/ml, the EC50 ([1]; kemptide phosphorylation, mean ± SD, read-out: EC50 in vitro PKA assay) was 234 ± 92 nM and the “increase in global RXXS*/T* site phosphorylation” value [2] was 3–4 fold. The IC50 ([3]; Trypanosoma brucei, 72 h, read-out: IC50 growth pkar KO) was 690 ± 58 nM, the EC50 ([3]; Trypanosoma brucei, read-out: EC50, Alamar blue cell viability assay, KO, individual replicate results) was 941 nM and the EC50 ([3]; read-out: EC50, Alamar blue cell viability assay, KO, individual replicate results) was 768 nM and 560 nM and 610 nM and 492 nM and 666 nM and 791 nM. For the same compound, the “In vitro kinase assay” value ([4]; 0.05 µM) was 0.0536 U/ml and 0.052 U/ml, the “In vitro kinase assay” value ([4]; 0.5 µM) was 0.0466 U/ml and 0.0501 U/ml and the “In vitro kinase assay” value ([4]; 5 µM) was 0.0571 U/ml and 0.0671 U/ml. For the same compound, the “In vitro kinase assay” value ([4]; 50 µM) was 0.067 U/ml and 0.0605 U/ml, the “activation of mammalian PKARIα2–2PKACα holoenzyme, in words” value ([4]; up to 270-fold above EC50 for T. brucei PKA holoenzyme) was “did not activate” and the “binding to purified human PKARIα, in words” value (human PKARIα) was “did not bind”. For the same compound, the Kd (T. brucei PKAR(199–499); 298 K, mean ± SD, n=3, read-out: KD in vitro binding to PKAR (ITC)) was 57 ± 25 nM, the “−TΔS (entropic component of binding)” value (T. brucei PKAR(199–499); ITC, mean) was -0.9 kcal/mol and the “Thermodynamics (ITC) -TΔS” value (T. brucei PKAR(199–499); independent replicates) was -2.01 and -0.373 and -0.411. The “Thermodynamics (ITC) ΔG” value (T. brucei PKAR(199–499); independent replicates) was -10.3 and -9.67 and -9.84, the “Thermodynamics (ITC) ΔH” value (T. brucei PKAR(199–499); independent replicates) was -8.26 and -9.3 and -9.43 and the “Molar ratio of binding (ITC)” value (T. brucei PKAR(199–499); ligand to protein, mean ± SD, n=3) was 2.1 ± 0.1. For the same compound, the PKAC1/2 counts (PKAC1/2; WT, 12 h) was 34.11, the PKAC1/2 normalized (PKAC1/2; WT, 12 h) was 23.6875 and the PKAC1/2 fold change (PKAC1/2; WT, 12 h) was 0.1712. For the same compound, the PKAC1/2 counts (PKAC1/2; WT, 18 h) was 35.81, the PKAC1/2 normalized (PKAC1/2; WT, 18 h) was 45.3291 and the PKAC1/2 fold change (PKAC1/2; WT, 18 h) was 0.3275. For the same compound, the PKAC1/2 counts (PKAC1/2; WT, 24 h) was 31.4, the PKAC1/2 normalized (PKAC1/2; WT, 24 h) was 33.0526 and the PKAC1/2 fold change (PKAC1/2; WT, 24 h) was 0.2388. For the same compound, the PKAC1/2 counts (PKAC1/2; pkar KO, 12 h) was 38.16, the PKAC1/2 normalized (PKAC1/2; pkar KO, 12 h) was 1.357 and the PKAC1/2 fold change (PKAC1/2; pkar KO, 12 h) was 0.08353. For the same compound, the PKAC1/2 counts (PKAC1/2; pkar KO, 18 h) was 35.91, the PKAC1/2 normalized (PKAC1/2; pkar KO, 18 h) was 1.945 and the PKAC1/2 fold change (PKAC1/2; pkar KO, 18 h) was 0.1198. For the same compound, the PKAC1/2 counts (PKAC1/2; pkar KO, 24 h) was 34.95, the PKAC1/2 normalized (PKAC1/2; pkar KO, 24 h) was 2.111 and the PKAC1/2 fold change (PKAC1/2; pkar KO, 24 h) was 0.13. For the same compound, the IC50 (T. brucei BSF cells (WT); Trypanosoma brucei, 72 h, read-out: IC50 growth WT) was 739 ± 59 nM, the EC50 (T. brucei BSF cells (WT); Trypanosoma brucei, read-out: EC50, Alamar blue cell viability assay, WT, individual replicate results) was 866 nM and the EC50 (T. brucei BSF cells (WT); read-out: EC50, Alamar blue cell viability assay, WT, individual replicate results) was 746 nM and 898 nM and 614 nM and 641 nM and 510 nM and 901 nM. The EC50 (T. brucei PKA [5]; VASP reporter, 15 min treatment, mean ± SD, read-out: EC50 in vivo PKA assay) was 88 nM and 87.6 nM and the “induction of VASP phosphorylation in pkar knock out, in words” value (T. brucei PKA [5]; homozygous deletion of PKAR) was “did not induce phosphorylation of VASP”.
For `Nc1nc2c(ncn2[C@@H]2O[C@@H]3COP(=O)(O)O[C@H]3[C@H]2O)c(=O)[nH]1` [cGMP], the “cGMP concentration activating T. brucei PKA” value (T. brucei PKA [6]) is given as no less than 20 µM, the “concentration at which the holoenzyme is activated” value [7] is given as no less than 100 µM and the “in vitro kinase assay [CPM], PKI” value ([7]; 0.1 mM + 5 µM PKI(5-24)) is given as 375.47 CPM. The “in vitro kinase assay [CPM], average” value ([7]; 0.1 mM) was 2249 CPM, the “in vitro kinase assay [CPM]” value ([7]; 0.1 mM) was 2477.88 CPM and 2206.3 CPM and 2062.83 CPM and the “in vitro kinase assay [CPM], PKI” value ([7]; 1 mM + 5 µM PKI(5-24)) was 760.33 CPM. For the same compound, the “in vitro kinase assay [CPM], average” value ([7]; 1 mM) was 8405.46 CPM, the “in vitro kinase assay [CPM]” value ([7]; 1 mM) was 9366.36 CPM and 9774.29 CPM and 6075.73 CPM and the “concentration at which the holoenzyme is activated” value [8] was no less than 100 µM. The “in vitro kinase assay [CPM], PKI” value ([8]; 0.1 mM + 5 µM PKI(5-24)) was 1137.33 CPM, the “in vitro kinase assay [CPM], average” value ([8]; 0.1 mM) was 8446.6 CPM and the “in vitro kinase assay [CPM]” value ([8]; 0.1 mM) was 9140 CPM and 8772.75 CPM and 7427.05 CPM. The “in vitro kinase assay [CPM], PKI” value ([8]; 1 mM + 5 µM PKI(5-24)) was 3682.78 CPM, the “in vitro kinase assay [CPM], average” value ([8]; 1 mM) was 22856.7 CPM and the “in vitro kinase assay [CPM]” value ([8]; 1 mM) was 17347.2 CPM and 27346.7 CPM and 23876.3 CPM. The “concentration at which the holoenzyme is activated” value [9] was no less than 100 µM, the “in vitro kinase assay [CPM], PKI” value ([9]; 0.1 mM + 5 µM PKI(5-24), Supp Fig 3b) was 1147.4 CPM and the “in vitro kinase assay [CPM], average” value ([9]; 0.1 mM, Supp Fig 3b) was 13459.0 CPM. The “in vitro kinase assay [CPM]” value ([9]; 0.1 mM, Supp Fig 3b) was 15124.3 CPM and 11079.5 CPM and 14173.3 CPM, the “in vitro kinase assay [CPM], PKI” value ([9]; 1 mM + 5 µM PKI(5-24), Supp Fig 3b) was 3732 CPM and the “in vitro kinase assay [CPM], PKI” value ([9]; 1 mM + 5 µM PKI(5-24), Supp Fig 3c) was 1928.6 CPM. For the same compound, the “in vitro kinase assay [CPM], average” value ([9]; 1 mM, Supp Fig 3b) was 48614.9 CPM, the “in vitro kinase assay [CPM]” value ([9]; 1 mM, Supp Fig 3b) was 51091.7 CPM and 52665 CPM and 42088 CPM and the “in vitro kinase assay [CPM], average” value ([9]; 1 mM, Supp Fig 3c) was 18465.6 CPM. For the same compound, the “in vitro kinase assay [CPM]” value ([9]; 1 mM, Supp Fig 3c) was 15510 CPM and 18398 CPM and 21488.7 CPM.
